Here are results for 20 molecules from ChEMBL document CHEMBL3045406, “Enantioselective Relieving Activity of α-Methylbenzylphenylureas toward Bensulfuron-methyl Injury to Rice (Oryza sativa)” (Biosci Biotechnol Biochem, 1999).

The test system of data set [1] is Oryza sativa. Description: Relieving activity against bensulfuron-methyl induced injury to Oryza sativa (rice) assessed as growth rate at 10 uM (Rbv = 46 to 53%). The format is functional.
In data set [2] the test system is Oryza sativa. Description: Safener indices, ratio of compound effect of Oryza sativa (rice) growth rate to relieving activity against bensulfuron-methyl induced injury to Oryza sativa growth rate at 1 uM.
Data set [3] relates to Oryza sativa. Description: Effect on Oryza sativa (rice) assessed as growth rate at 0.1 uM relative to control. The format is organism-based. The note with it: in vivo.
Data set [4] has as its system Oryza sativa. Nature of the data set: Effect on Oryza sativa (rice) assessed as growth rate at 1 uM relative to control. The note with it: in vivo. Type of data set: organism-based.
Data set [5] can be described thus: Hydrophobicity, log K of the compound. Type of data set: physicochemical. Particulars: octanol/water.
For data set [6], the system named is Oryza sativa. Description: Relieving activity against bensulfuron-methyl induced injury to Oryza sativa (rice) assessed as growth rate at 1 uM (Rbv = 46 to 53%). Type of data set: functional.
Data set [7] relates to Oryza sativa. Description: Relieving activity against bensulfuron-methyl induced injury to Oryza sativa (rice) assessed as growth rate at 0.1 uM (Rbv = 46 to 53%). The format is functional.
Data set [8] concerns Oryza sativa. Description: Safener indices, ratio of compound effect of Oryza sativa (rice) growth rate to relieving activity against bensulfuron-methyl induced injury to Oryza sativa growth rate at 10 uM.
Data set [9] has as its system Oryza sativa. Description: Safener indices, ratio of compound effect of Oryza sativa (rice) growth rate to relieving activity against bensulfuron-methyl induced injury to Oryza sativa growth rate at 0.1 uM.
Data set [10] deals with Oryza sativa. Nature of the data set: Effect on Oryza sativa (rice) assessed as growth rate at 10 uM relative to control. The format is organism-based. The note with it: in vivo.

With `C[C@H](NC(=O)Nc1ccc(C(C)(C)C)cc1)c1ccccc1`, the Activity in the data set on Oryza sativa [1] worked out at 68%; in the data set with Oryza sativa [3], 100%; with Oryza sativa [4], 88%; in the data set on Oryza sativa [6] it was 65%; in the data set on Oryza sativa [7], 52%; in the data set with Oryza sativa [10], 64%. The values for the Ratio with Oryza sativa [2], with Oryza sativa [8] and with Oryza sativa [9] were 37, 53 and 4, respectively. Moreover, the “log K” value in data set [5] came out at 0.673.
Turning to `CCCCc1ccc(NC(=O)N[C@H](C)c2ccccc2)cc1`, the Activity is reported as 28% in the data set on Oryza sativa [1]; 100% in the data set with Oryza sativa [3]; 32% in the data set with Oryza sativa [4]; 38% in the data set with Oryza sativa [6]; 57% in the data set with Oryza sativa [7]; 28% in the data set with Oryza sativa [10]. Also, the Ratio in the data set on Oryza sativa [2] came to 26; with Oryza sativa [8], 16; with Oryza sativa [9], 13. Besides, in data set [5], the “log K” value amounted to 0.76.
With `CCCCc1ccc(NC(=O)N[C@@H](C)c2ccccc2)cc1`, the Activity with Oryza sativa [1] was 56%; in the data set on Oryza sativa [3], 98%; with Oryza sativa [4], 72%; in the data set on Oryza sativa [6], 68%; with Oryza sativa [7] it was 60%; in the data set with Oryza sativa [10], 60%. The figures for the Ratio with Oryza sativa [2], in the data set with Oryza sativa [8] and in the data set with Oryza sativa [9] were 50, 37 and 21, respectively. The “log K” value in data set [5] was found to be 0.76.
Turning to `CCCCCc1ccc(NC(=O)N[C@H](C)c2ccccc2)cc1`, the Activity in the data set with Oryza sativa [1] is 69%; with Oryza sativa [3], 100%; with Oryza sativa [4], 101%; in the data set with Oryza sativa [6], 65%; in the data set with Oryza sativa [7] it was 54%; in the data set with Oryza sativa [10], 97%. The Ratio with Oryza sativa [2] worked out at 27; in the data set with Oryza sativa [8] it was 38; in the data set on Oryza sativa [9], 3. Besides, in data set [5], the “log K” value is reported as 0.912.
Regarding `CCCCCc1ccc(NC(=O)N[C@@H](C)c2ccccc2)cc1`, the Activity with Oryza sativa [1] is given as 71%; with Oryza sativa [3], 98%; with Oryza sativa [4], 98%; in the data set with Oryza sativa [6] it was 59%; in the data set on Oryza sativa [7], 55%; in the data set on Oryza sativa [10] it was 93%. The results for the Ratio with Oryza sativa [2], in the data set on Oryza sativa [8] and with Oryza sativa [9] were 16, 43 and 9, respectively. Besides, the “log K” value in [5] came to 0.912.
In the case of `CCCCCCc1ccc(NC(=O)N[C@H](C)c2ccccc2)cc1`, the Activity is 61% in the data set on Oryza sativa [1]; 100% in the data set on Oryza sativa [3]; 101% in the data set on Oryza sativa [4]; 54% with Oryza sativa [6]; 52% in the data set on Oryza sativa [7]; 101% in the data set with Oryza sativa [10]. Also, the Ratio in the data set on Oryza sativa [2] stood at 9; in the data set with Oryza sativa [8], 22; in the data set with Oryza sativa [9] it was 6. Also, in data set [5], the “log K” value is 1.081.
Turning to `CCCCCCc1ccc(NC(=O)N[C@@H](C)c2ccccc2)cc1`, the Activity in the data set with Oryza sativa [1] was determined as 61%; in the data set on Oryza sativa [3], 99%; with Oryza sativa [4], 100%; in the data set on Oryza sativa [6], 54%; with Oryza sativa [7], 51%; in the data set on Oryza sativa [10] it was 99%. The Ratio in the data set on Oryza sativa [2] is 11; in the data set on Oryza sativa [8] it was 25; in the data set on Oryza sativa [9], 6. Besides, the “log K” value in data set [5] is on record as 1.081.
With `CCCCCCCc1ccc(NC(=O)N[C@H](C)c2ccccc2)cc1`, the Activity in the data set on Oryza sativa [1] was found to be 53%; with Oryza sativa [3] it was 100%; with Oryza sativa [4] it was 100%; in the data set with Oryza sativa [6], 52%; in the data set with Oryza sativa [7] it was 51%; in the data set on Oryza sativa [10], 100%. For the same molecule, the Ratio in the data set with Oryza sativa [2] stood at 5; in the data set with Oryza sativa [8] it was 9; with Oryza sativa [9], 5. Also, in [5], the “log K” value worked out at 1.266.
As to `CCCCCCCc1ccc(NC(=O)N[C@@H](C)c2ccccc2)cc1`, the Activity with Oryza sativa [1] turned out to be 59%; in the data set on Oryza sativa [3], 100%; with Oryza sativa [4] it was 99%; with Oryza sativa [6], 53%; with Oryza sativa [7], 51%; in the data set with Oryza sativa [10], 99%. The results for the Ratio with Oryza sativa [2], with Oryza sativa [8] and in the data set with Oryza sativa [9] were 9, 21 and 4, respectively. Further, in data set [5], the “log K” value is 1.266.
Take `CCOC(=O)c1ccccc1NC(=O)N[C@H](C)c1ccccc1`: the Activity in the data set with Oryza sativa [1] worked out at 77%; with Oryza sativa [3], 100%; in the data set on Oryza sativa [4], 100%; in the data set with Oryza sativa [6] it was 63%; in the data set with Oryza sativa [7] it was 53%; in the data set on Oryza sativa [10], 100%. Further, the Ratio with Oryza sativa [2] is given as 25; in the data set with Oryza sativa [8], 54; with Oryza sativa [9] it was 6. Further, the “log K” value in [5] amounted to 0.667.
On to `CCOC(=O)c1ccccc1NC(=O)N[C@@H](C)c1ccccc1`, for which the Activity in the data set on Oryza sativa [1] worked out at 67%; with Oryza sativa [3], 100%; in the data set on Oryza sativa [4], 100%; in the data set with Oryza sativa [6] it was 60%; with Oryza sativa [7] it was 50%; in the data set with Oryza sativa [10], 100%. Moreover, the Ratio with Oryza sativa [2] came out at 21; in the data set with Oryza sativa [8] it was 34; in the data set with Oryza sativa [9] it was 0. The “log K” value in [5] is 0.667.
With `CCOC(=O)c1cccc(NC(=O)N[C@H](C)c2ccccc2)c1`, the Activity in the data set with Oryza sativa [1] is 87%; in the data set on Oryza sativa [3], 99%; in the data set on Oryza sativa [4], 94%; with Oryza sativa [6], 74%; with Oryza sativa [7], 57%; with Oryza sativa [10], 88%. In addition, the Ratio stood at 51 with Oryza sativa [2], 77 with Oryza sativa [8] and 15 with Oryza sativa [9]. Further, the “log K” value in data set [5] is reported as 0.419.
Take `CCOC(=O)c1cccc(NC(=O)N[C@@H](C)c2ccccc2)c1`: the Activity in the data set with Oryza sativa [1] was determined as 95%; in the data set with Oryza sativa [3] it was 100%; in the data set on Oryza sativa [4] it was 99%; in the data set with Oryza sativa [6] it was 85%; in the data set on Oryza sativa [7], 72%; with Oryza sativa [10], 96%. Further, the values for the Ratio in the data set on Oryza sativa [2], in the data set on Oryza sativa [8] and in the data set with Oryza sativa [9] were 70, 89 and 44, respectively. For the same molecule, the “log K” value in data set [5] worked out at 0.419.
For the molecule `CCOC(=O)c1ccc(NC(=O)N[C@H](C)c2ccccc2)cc1`, the Activity in the data set with Oryza sativa [1] was found to be 89%; in the data set on Oryza sativa [3] it was 101%; with Oryza sativa [4], 100%; with Oryza sativa [6], 78%; in the data set with Oryza sativa [7] it was 56%; with Oryza sativa [10] it was 92%. Moreover, the Ratio with Oryza sativa [2] is 56; in the data set with Oryza sativa [8], 79; with Oryza sativa [9], 11. Moreover, the “log K” value in data set [5] is 0.415.
`C[C@@H](NC(=O)Nc1ccccc1C(F)(F)F)c1ccccc1`: the Activity with Oryza sativa [1] is reported as 58%; in the data set on Oryza sativa [3], 99%; in the data set with Oryza sativa [4] it was 95%; in the data set on Oryza sativa [6], 54%; in the data set with Oryza sativa [7] it was 55%; with Oryza sativa [10] it was 54%. The values for the Ratio with Oryza sativa [2], in the data set on Oryza sativa [8] and with Oryza sativa [9] were 11, 42 and 10, respectively. In [5], the “log K” value is given as 0.456.
`C[C@H](NC(=O)Nc1ccccc1C(F)(F)F)c1ccccc1`: the Activity in the data set with Oryza sativa [1] stood at 92%; in the data set on Oryza sativa [3], 97%; in the data set with Oryza sativa [4] it was 98%; in the data set with Oryza sativa [6], 70%; in the data set with Oryza sativa [7] it was 56%; with Oryza sativa [10] it was 97%. Further, the Ratio in the data set with Oryza sativa [2] was 40; in the data set on Oryza sativa [8], 85; in the data set on Oryza sativa [9] it was 12. In addition, in data set [5], the “log K” value turned out to be 0.456.
For `C[C@@H](NC(=O)Nc1cccc(C(F)(F)F)c1)c1ccccc1`, the Activity in the data set with Oryza sativa [1] stood at 68%; with Oryza sativa [3], 82%; with Oryza sativa [4], 72%; in the data set on Oryza sativa [6] it was 63%; with Oryza sativa [7], 57%; in the data set with Oryza sativa [10], 70%. The Ratio is on record as 41 in the data set with Oryza sativa [2], 50 with Oryza sativa [8] and 26 in the data set with Oryza sativa [9]. Moreover, the “log K” value in [5] amounted to 0.542.
`C[C@H](NC(=O)Nc1cccc(C(F)(F)F)c1)c1ccccc1`: the Activity in the data set on Oryza sativa [1] was 82%; with Oryza sativa [3] it was 94%; in the data set with Oryza sativa [4], 93%; in the data set on Oryza sativa [6], 75%; with Oryza sativa [7] it was 62%; in the data set with Oryza sativa [10] it was 92%. Moreover, the results for the Ratio in the data set on Oryza sativa [2], in the data set with Oryza sativa [8] and in the data set with Oryza sativa [9] were 53, 66 and 26, respectively. Moreover, the “log K” value in [5] is 0.542.
Take `C[C@@H](NC(=O)Nc1ccc(C(F)(F)F)cc1)c1ccccc1`: the Activity in the data set with Oryza sativa [1] was 67%; with Oryza sativa [3], 93%; in the data set on Oryza sativa [4], 89%; in the data set on Oryza sativa [6], 74%; in the data set with Oryza sativa [7] it was 59%; with Oryza sativa [10], 82%. For the same molecule, the Ratio in the data set on Oryza sativa [2] was 53; in the data set with Oryza sativa [8] it was 42; with Oryza sativa [9], 22. In data set [5], the “log K” value is listed as 0.537.
In the case of `C[C@H](NC(=O)Nc1ccc(C(F)(F)F)cc1)c1ccccc1`, the Activity with Oryza sativa [1] was found to be 93%; with Oryza sativa [3], 94%; with Oryza sativa [4], 94%; in the data set with Oryza sativa [6] it was 85%; in the data set on Oryza sativa [7] it was 67%; in the data set on Oryza sativa [10] it was 94%. The Ratio is given as 72 in the data set with Oryza sativa [2], 86 in the data set with Oryza sativa [8] and 36 in the data set on Oryza sativa [9]. Also, the “log K” value in data set [5] came to 0.537.
